Reference: ChEMBL document CHEMBL1139542, “Synthesis, biological evaluation, and three-dimensional quantitative structure-activity relationship study of small-molecule positive modulators of adrenomedullin” (J Med Chem, 2005)

test system: Adrenomedullin (Homo sapiens); experiment: Affinity against human adrenomedullin

Affinity [%]	SMILES
14	c1ccc(Cn2c(CCCCCc3nnc(COc4ccccc4)n3Cc3ccccc3)nnc2COc2ccccc2)cc1
18	c1ccc(OCc2nnc(CCCCc3nnc(COc4ccccc4)o3)o2)cc1
4	c1ccc(OCc2nnc(CCCCCc3nnc(COc4ccccc4)o3)o2)cc1
5	c1ccc(OCc2nnc(CCCCCCCCc3nnc(COc4ccccc4)o3)o2)cc1
6	c1ccc(OCc2nnc(CCCCCCCc3nnc(COc4ccccc4)o3)o2)cc1
3	c1ccc(Cn2c(CCCCCCc3nnc(COc4ccccc4)n3Cc3ccccc3)nnc2COc2ccccc2)cc1
10	c1ccc(OCc2nnc(CCCCCCc3nnc(COc4ccccc4)o3)o2)cc1

More lines, now with the values behind:

SMILES	Affinity [%]
Clc1ccc(OCc2nnc(CCCCCCCCc3nnc(COc4ccc(Cl)cc4Cl)n3Nc3ccccc3)n2Nc2ccccc2)c(Cl)c1	68
O=C(CCCCC(=O)NNC(=O)COc1ccccc1)NNC(=O)COc1ccccc1	1
c1ccc(Cn2c(CCCCCCCc3nnc(COc4ccccc4)n3Cc3ccccc3)nnc2COc2ccccc2)cc1	20
Oc1c(OCc2nnc(CCCCCCCCc3nnc(COc4ccc5ccccc5c4O)n3Nc3ccccc3)n2Nc2ccccc2)ccc2ccccc12	83
Nn1c(CCCCCCCCc2nnc(COc3ccc(Cl)cc3Cl)n2N)nnc1COc1ccc(Cl)cc1Cl	48
c1ccc(Cn2c(CCCCCCCCc3nnc(COc4ccccc4)n3Cc3ccccc3)nnc2COc2ccccc2)cc1	4
Oc1ccc2ccccc2c1OCc1nnc(CCCCCCCCc2nnc(COc3c(O)ccc4ccccc34)n2Nc2ccccc2)n1Nc1ccccc1	24
c1ccc(Nn2c(CCCCCCCCc3nnc(COc4ccccc4)n3Nc3ccccc3)nnc2COc2ccccc2)cc1	81
Nn1c(CCCCCCCCc2nnc(COc3ccc(Cl)cc3)n2N)nnc1COc1ccc(Cl)cc1	19
O=C(CCCCCCCCC(=O)NNC(=O)COc1ccccc1)NNC(=O)COc1ccccc1	25
O=C(CCCCCCC(=O)NNC(=O)COc1ccccc1)NNC(=O)COc1ccccc1	20
O=C(CCCCCC(=O)NNC(=O)COc1ccccc1)NNC(=O)COc1ccccc1	16
Nn1c(CCCCCCCCc2nnc(COc3c(O)ccc4ccccc34)n2N)nnc1COc1c(O)ccc2ccccc12	46
c1ccc(Cn2c(CCCCc3nnc(COc4ccccc4)n3Cc3ccccc3)nnc2COc2ccccc2)cc1	19
O=C(CCCCCCCC(=O)NNC(=O)COc1ccccc1)NNC(=O)COc1ccccc1	7
Clc1ccc(OCc2nnc(CCCCCCCCc3nnc(COc4ccc(Cl)cc4)n3Nc3ccccc3)n2Nc2ccccc2)cc1	51
Nn1c(CCCCCCCCc2nnc(COc3ccc4ccccc4c3O)n2N)nnc1COc1ccc2ccccc2c1O	42
